Experimental data from patent US11254668B2, “Pyrazolo[1,5-A]pyrazin-4-yl and related derivatives” (Pfizer Inc., priority 2017, dated 2022).
Like-named read-outs stand apart in the source and are kept apart here.

Columns and labels:
Type in all cases: biochemical
TYK2 = TYK2 (Homo sapiens (Human), UniProt P29597); assay: JAK Caliper Enzyme Assay at 1 mM ATP, TYK2
Outline: (§1)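 Peptide phosphorylation by recombinant human kinase domain, 1 mM ATP, room temperature, EDTA-terminated, detected by microfluidic mobility shift; % effect normalised to DMSO baseline.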

JAK1 = JAK1 (Homo sapiens (Human), UniProt P23458); assay: JAK Caliper Enzyme Assay at 1 mM ATP, JAK1
Sequence of JAK1 (P23458 875-1153): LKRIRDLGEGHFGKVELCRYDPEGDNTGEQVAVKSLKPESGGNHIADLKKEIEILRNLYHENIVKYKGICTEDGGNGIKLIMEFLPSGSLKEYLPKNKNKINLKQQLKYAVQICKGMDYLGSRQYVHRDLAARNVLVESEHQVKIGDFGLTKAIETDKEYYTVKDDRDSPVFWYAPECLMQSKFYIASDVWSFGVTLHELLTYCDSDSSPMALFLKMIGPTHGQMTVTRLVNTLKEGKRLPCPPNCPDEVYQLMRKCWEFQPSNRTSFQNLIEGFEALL
Outline: (§2)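 Recombinant human kinase domains phosphorylate a fluorescent synthetic peptide at 1 mM ATP, room temperature, with enzyme and time tuned for 20-30% conversion; EDTA-stopped. Product/substrate separated by microfluidic mobility shift; percent effect versus DMSO and positive controls fitted to IC50 (nM).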

JAK2 = JAK2 (Homo sapiens (Human), UniProt O60674); assay: JAK Caliper Enzyme Assay at 1 mM ATP, JAK2
Sequence of JAK2 (O60674 849-1124): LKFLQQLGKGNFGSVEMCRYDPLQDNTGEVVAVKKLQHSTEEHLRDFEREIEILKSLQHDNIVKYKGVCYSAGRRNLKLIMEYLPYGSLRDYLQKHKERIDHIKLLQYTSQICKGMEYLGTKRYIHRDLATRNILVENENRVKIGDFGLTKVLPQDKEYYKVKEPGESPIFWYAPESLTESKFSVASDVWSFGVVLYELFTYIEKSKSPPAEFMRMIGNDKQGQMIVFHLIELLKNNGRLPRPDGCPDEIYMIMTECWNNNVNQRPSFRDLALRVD
Outline: as §1

JAK3 = JAK3 (Homo sapiens (Human), UniProt P52333); assay: JAK Caliper Enzyme Assay at 1 mM ATP, JAK3
Sequence of JAK3 (P52333 822-1111): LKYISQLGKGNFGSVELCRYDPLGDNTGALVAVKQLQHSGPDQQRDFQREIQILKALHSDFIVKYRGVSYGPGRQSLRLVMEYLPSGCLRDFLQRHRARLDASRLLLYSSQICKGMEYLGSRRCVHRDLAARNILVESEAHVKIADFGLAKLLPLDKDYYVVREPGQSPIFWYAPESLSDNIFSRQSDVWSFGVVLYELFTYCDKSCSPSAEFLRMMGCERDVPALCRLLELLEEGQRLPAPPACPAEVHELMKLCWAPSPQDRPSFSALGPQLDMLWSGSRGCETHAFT
Outline: as §2

Sequence of TYK2 (P29597 897-1176): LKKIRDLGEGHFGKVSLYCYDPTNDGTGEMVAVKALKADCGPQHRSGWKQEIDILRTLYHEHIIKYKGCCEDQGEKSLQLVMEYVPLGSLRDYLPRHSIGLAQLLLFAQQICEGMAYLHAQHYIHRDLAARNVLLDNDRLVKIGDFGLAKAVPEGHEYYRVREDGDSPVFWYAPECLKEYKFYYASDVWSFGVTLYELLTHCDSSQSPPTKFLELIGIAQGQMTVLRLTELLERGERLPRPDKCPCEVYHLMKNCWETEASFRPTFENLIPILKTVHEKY

SMILES	IC50 (TYK2) [µM]	IC50 (JAK1) [µM]	IC50 (JAK2) [µM]	IC50 (JAK3) [µM]	IC50 (TYK2; JAK Caliper enzyme assay) [µM]	IC50 (JAK1; JAK Caliper enzyme assay) [µM]	IC50 (JAK2; JAK Caliper enzyme assay) [µM]	IC50 (JAK3; JAK Caliper enzyme assay) [µM]
N#CC[C@]1(n2ncc(-c3cc(-c4cnn(CCO)c4)cc4ncccc34)n2)C[C@@H](C#N)C1 [Example 327, cis-3-(cyanomethyl)-3-(4-{7-[1-(2-hydroxyethyl)-1H-pyrazol-4-yl]quinolin-5-yl}-2H-1,2,3-triazol-2-yl)cyclobutanecarbonitrile]	0.02	0.262	0.052	3.29				
N#CC[C@]1(n2ncc(-c3cc(-c4cc[nH]n4)cc4ncccc34)n2)C[C@H](C#N)C1 [Example 302, trans-3-(cyanomethyl)-3-{4-[7-(1H-pyrazol-3-yl)quinolin-5-yl]-2H-1,2,3-triazol-2-yl}cyclobutanecarbonitrile]	0.02	0.436	0.173	> 10				
N#CCC1(n2ccc(-c3nc(-c4ccc(=O)[nH]c4)cc4ncccc34)n2)CN(S(=O)(=O)C2CC2)C1 [Example 246, [1-(cyclopropylsulfonyl)-3-{3-[7-(6-oxo-1,6-dihydropyridin-3-yl)-1,6-naphthyridin-5-yl]-1H-pyrazol-1-yl}azetidin-3-yl]acetonitrile]	0.032	0.554	0.971	> 10				
CS(=O)(=O)N1CC(CC#N)(n2ccc(-c3nc(-c4ccc(N)nc4)cc4ncccc34)n2)C1 [Example 194]	0.045	0.843	0.436	> 10				
CS(=O)(=O)N1CC(CC#N)(n2ncc(-c3cc(-c4cccc(CO)c4)cc4ncccc34)n2)C1 [Example 429, [3-(4-{7-[3-(hydroxymethyl)phenyl]quinolin-5-yl}-2H-1,2,3-triazol-2-yl)-1-(methylsulfonyl)azetidin-3-yl]acetonitrile]					0.112	4	1.12	> 10
Cn1ncc(-c2cc(-c3cnn([C@]4(CC#N)C[C@H](C#N)C4)n3)c3cccnc3c2)c1N [Example 331, cis-3-{4-[7-(5-amino-1-methyl-1H-pyrazol-4-yl)quinolin-5-yl]-2H-1,2,3-triazol-2-yl}-3-(cyanomethyl)cyclobutanecarbonitrile]	0.115	3.7	0.74	> 10				
N#CC[C@]1(n2cc(-c3cc(-c4cn[nH]c4N)cc4ncccc34)cn2)C[C@H](C#N)C1 [Example 290, trans-3-{4-[7-(5-amino-1H-pyrazol-4-yl)quinolin-5-yl]-1H-pyrazol-1-yl}-3-(cyanomethyl)cyclobutanecarbonitrile]	0.236	2.96	1.75	> 10				
Cc1cc(-c2cc3ncccc3c(-c3ccn([C@]4(CC#N)C[C@@H](C#N)C4)n3)n2)nn1C [Example 58, trans-3-(cyanomethyl)-3-{3-[7-(1,5-dimethyl-1H-pyrazol-3-yl)-1,6-naphthyridin-5-yl]-1H-pyrazol-1-yl}cyclobutanecarbonitrile]	0.034	7.43	0.51	> 10				
COc1nc(-c2cc(-c3cnn([C@]4(CC#N)C[C@@H](C#N)C4)n3)c3cccnc3c2)cnc1N [Example 408, trans-3-{4-[7-(5-amino-6-methontpyrazin-2-yl)quinolin-5-yl]-2H-1,2,3-triazol-2-yl}-3-(cyanomethyl)cyclobutanecarbonitrile]					2.09	> 10	> 10	> 10
Cc1ncc(N)nc1-c1cc(-c2cnn([C@]3(CC#N)C[C@H](C#N)C3)n2)c2cccnc2c1 [Example 404, cis-3-{4-[7-(6-amino-3-methylpyrazin-2-yl)quinolin-5-yl]-2H-1,2,3-triazol-2-yl}-3-(cyanomethyl)cyclobutanecarbonitrile]					7.4	> 10	> 10	> 10
CS(=O)(=O)N1CC(CC#N)(n2cnc(-c3cc(-c4ccc(=O)[nH]c4)cc4ncccc34)n2)C1 [Example 451, [1-(methylsulfonyl)-3-{3-[7-(6-oxo-1,6-dihydropyridin-3-yl)quinolin-5-yl]-1H-1,2,4-triazol-1-yl}azetidin-3-yl]acetonitrile]					0.283	> 10	7.16	> 10
Cn1cc(-c2cc(-c3ccn(C4(CC#N)CN(CC(F)(F)F)C4)n3)n3ncnc3c2)cn1 [Example 476, [3-{3-[7-(1-methyl-1H-pyrazol-4-yl)[1,2,4]triazolo[1,5-a]pyridin-5-yl]-1H-pyrazol-1-yl}-1-(2,2,2-trifluoroethyl)azetidin-3-yl]acetonitrile]					0.48	0.693	0.486	7.28
CS(=O)(=O)c1ccc(-c2cc3ncccc3c(-c3ccn(C4(CC#N)CC(C#N)C4)n3)n2)cn1 (stereo not drawn) [Example 207, cis-3-(cyanomethyl)-3-(3-{7-[6-(methylsulfonyl)pyridin-3-yl]-1,6-naphthyridin-5-yl}-1H-pyrazol-1-yl)cyclobutanecarbonitrile]	0.024	0.285	0.056	9.27				
Cn1cc(-c2cc3nccnc3c(-c3cnn(C4(CC#N)CN(CC(F)(F)F)C4)c3)n2)cn1 [Example 479, [3-{4-[7-(1-methyl-1H-pyrazol-4-yl)pyrido[3,4-b]pyrazin-5-yl]-1H-pyrazol-1-yl}-1-(2,2,2-trifluoroethyl)azetidin-3-yl]acetonitrile]					0.011	0.169	0.024	3.4
CS(=O)(=O)N1CC(CC#N)(n2ccc(-c3nc(-c4ccc(F)cc4O)cc4ncccc34)n2)C1 [Example 259, [3-{3-[7-(4-fluoro-2-hydroxyphenyl)-1,6-naphthyridin-5-yl]-1H-pyrazol-1-yl}-1-(methylsulfonyl)azetidin-3-yl]acetonitrile]	0.019	> 10	0.566	> 10				
N#CC[C@]1(n2ccc(-c3nc(-c4cccc(CO)n4)cc4ncccc34)n2)C[C@@H](C#N)C1 [Example 212, cis-3-(cyanomethyl)-3-(3-{7-[6-(hydroxymethyl)pyridin-2-yl]-1,6-naphthyridin-5-yl}-1H-pyrazol-1-yl)cyclobutanecarbonitrile]	0.198	2.95	0.9	> 10				
N#CCC1(n2ncc(-c3cc(-c4cc[nH]n4)cc4ncccc34)n2)CN(CC2(F)CC2)C1 [Example 297]	0.315	4.59	2.47	> 10				
Cn1cc(-c2cc3ncccc3c(-c3ccn(C4(CC#N)CN(S(C)(=O)=O)C4)n3)n2)ccc1=O [Example 248, [3-{3-[7-(1-methyl-6-oxo-1,6-dihydropyridin-3-yl)-1,6-naphthyridin-5-yl]-1H-pyrazol-1-yl}-1-(methylsulfonyl)azetidin-3-yl]acetonitrile]	0.096	0.994	0.532	> 10				
CNC(=O)[C@H]1C[C@](CC#N)(n2ccc(-c3nc(-c4ccn[nH]4)cc4ncccc34)n2)C1 [Example 27, trans-3-(cyanomethyl)-N-methyl-3-{3-[7-(1H-pyrazol-5-yl)-1,6-naphthyridin-5-yl]-1H-pyrazol-1-yl}cyclobutanecarboxamide]	7.56	> 10	> 10	> 10				
N#CCC1(n2ncc(-c3cc(-c4ccn[nH]4)cc4ncccc34)n2)CN(S(=O)(=O)C2COC2)C1 [Example 301, [1-(oxetan-3-ylsulfonyl)-3-{4-[7-(1H-pyrazol-5-yl)quinolin-5-yl]-2H-1,2,3-triazol-2-yl}azetidin-3-yl]acetonitrile]	0.017	0.338	0.195	> 10				
N#CC[C@]1(n2cc(-c3cc(-c4cccc(C(N)=O)n4)cc4nccn34)cn2)C[C@H](C#N)C1 [Example 470, 6-(5-{1-[cis-3-cyano-1-(cyanomethyl)cyclobutyl]-1H-pyrazol-4-yl}imidazo[1,2-a]pyridin-7-yl)pyridine-2-carboxamide]					0.025	0.62	0.147	> 10
Cn1cc(-c2cc3ncccc3c(-n3ccc(C4(CC#N)CN(CC(F)(F)F)C4)n3)n2)cn1 [Example 279, [3-{1-[7-(1-methyl-1H-pyrazol-4-yl)-1,6-naphthyridin-5-yl]-1H-pyrazol-3-yl}-1-(2,2,2-trifluoroethyl)azetidin-3-yl]acetonitrile]	0.194	6.34	0.686	> 10				
COc1ncc(-c2cc3ncccc3c(-c3ccn(C4(CC#N)CN(S(C)(=O)=O)C4)n3)n2)cn1 [Example 237, [3-{3-[7-(2-methoxypyrimidin-5-yl)-1,6-naphthyridin-5-yl]-1H-pyrazol-1-yl}-1-(methylsulfonyl)azetidin-3-yl]acetonitrile]	2.04	> 10	> 10	> 10				
CS(=O)(=O)N1CC(CC#N)(n2ccc(-c3nc(-c4ccn[nH]4)cc4ncccc34)n2)C1 [Example 17, [1-(methylsulfonyl)-3-{3-[7-(1H-pyrazol-5-yl)-1,6-naphthyridin-5-yl]-1H-pyrazol-1-yl}azetidin-3-yl]acetonitrile]	0.044	1.02	0.464	> 10				
Cn1cc(-c2cc3ncccc3c(-c3ccn([C@]4(CC#N)C[C@@H](C#N)C4)n3)n2)c(CO)n1 [Example 135, trans-3-(cyanomethyl)-3-(3-{7-[3-(hydroxymethyl)-1-methyl-1H-pyrazol-4-yl]-1,6-naphthyridin-5-yl}-1H-pyrazol-1-yl)cyclobutanecarbonitrile]	0.02	0.489	0.034	2.02				
